The text below walks through data of patent US8163803B2 (Fundação Oswaldo Cruz—FIOCRUZ, priority 2004, dated 2012).

For data set [1], the system named is dorsal subcutaneous tissue of rats. The experiment in a line: Anaphylactic release of histamine by fragments of dorsal subcutaneous tissue. Also noted: species or system Wistar rats. As to conditions: ovoalbumin (300 μg/ml); for IC50: 60 min pre-treatment, read-out: IC50, inhibition of histamine release caused by anaphylatic stimulus. The method, then: Female and male Wistar rats were used, weighing between 180 and 200 g, they came from Oswaldo Cruz Foundation's Center of Laboratory Animal Raising. The procedures involving the animals were examined and approved by Oswaldo Cruz Foundation's Committee of Animal Ethics (CEUA-FIOCRUZ, Port. 00085-02). The rats were sensitized with a subcutaneous injection containing a mixture of 50 μg ovalbumina plus 5 mg Al(OH)3. Fourteen days after the sensitization the animals were sacrificed in a chamber of CO2, to have their dorsal hypodermis removed which was fragmented into smaller segments of about 3 mm in a Petri dish containing PBS. The fragments were individually transferred to a dish with 48 pools containing 500 μl of Hanks with Ca^++ and Mg^++.
Five experimental groups were studied in quadruplicates:
I. Saline group, negative control, pools where the tissue was neither treated nor stimulated;
II. Ovoalbumin group, positive control, pools where the tissue was not treated but it was stimulated by ovoalbumin (300 μg/ml);
III. JM24-1 group, pools where the tissue was previously treated with JM24-1 before the stimulation with ovoalbumin (300 μg/ml);
IV. JM25-1 group, pools where the tissue was previously treated with JM25-1 before the stimulation with ovoalbumin (300 μg/ml);
V. JMF2-1 group, pools where the tissue was previously treated with JMF2-1 before the stimulation with ovoalbumin (300 μg/ml).
Treated and non-treated pools were kept at 37° C. in a metabolic incubator (atmosphere containing 95% O2 and 5% CO2) for 60 minutes before the antigenic challenge. After the addition of ovoalbumin (300 μg/ml) all the pools were incubated again in a metabolic oven for more than 60 minutes. After removal of tissue for drying and weighing, the culture medium was collected and acidified with perchloric acid 0.4 N being, after centrifugation 150×g for 10 min. stocked at −20° C. until the moment of fluorimetric quantifying of histamine, according to the previous work. The values were shown like nanograms of released histamine by mg of tissue (dry weight).

The next data set has as its system eosinophils of rats. The experiment in a line: Cytosolic calcium increase in eosinophils stimulated with PAF (Fura 2-AM). It counts as cell-based, Wistar rats. As to conditions: PAF (1 μM); for inhibition of citosolic calcium increase compared with lidocaine: 5 min pre-incubation. The procedure: Female and male Wistar rats were used, weighing between 200 and 250 g, they came from Oswaldo Cruz Foundation's Center of Laboratory Animal Raising. The procedures involving the animals were examined and approved by Oswaldo Cruz Foundation's Committee of Animal Ethics (CEUA-FIOCRUZ, Licenca no. 00085-02).
The animals were sacrificed in a chamber of CO2 and a population of cells containing 10-15% eosinophils were recovered from the peritoneal cavity after washing the same with 20 ml Hanks, as previously described. After centrifugation, the cellular sediment was resuspended and the leukocytes subtypes (mononuclear cells, eosinophils and mast cells) separated in a discontinuous gradient of Percoll (double layer) centrifugated at 400×g for 25 minutes. The eosinophils (85-95% purity) were recovered in the interface 56%-72%, washed in RPMi medium to eliminate residue of Percoll and related. The total cells isolated was obtained after the dilution of a sample in Türk liquid and couting in Neubauer chamber with the assistance of direct-light microscopy. The populational purity analysis was done by direct-light microscopy in cytocentrifugates dyed with May-Grunwald-Giemsa.
The eosinophils (1×10^7/ml) were loaded with 3 μM Fura 2-AM as described, washed in PBS enriched with 0.1% BSA, and resuspended in a final concentration of 0.5×10^6/ml PBS containing 0.25% BSA, HEPES and glucose ([…]). Alíquotas de células (1.5 ml) were dispensed in quartz cuvettes and balanced with 1 mM calcium at 37° C. for 10 minutes before being used. Fluorescence changes were measured by fluorometer Shimatzu (model RF 1501) as previously described. The calculus of free calcium was derived from the fluorescence spectrum (wave length of excitation, 340 and 380 nm; emission 510 nm) according to the method established. The values were represented as percentage of inhibition in relation to group control. […]
The values were expressed as an average± standard error of the mean and statistically analyzed through the test of variance analysis (ANOVA), followed by the Newman-Keuls-Student test.

For the next data set, the system named is Swiss 44 mice. The data set can be described thus: Convulsivant activity after intraperitoneal injection. The data set is classed as in vivo. The method, then:
Female and male Swiss 44 mice were used, weighing between 25 and 30 g, they came from Oswaldo Cruz Foundation's Center of Laboratory Animal Raising. The procedures involving the animals were examined and approved by Oswaldo Cruz Foundation's Committee of Animal Ethics (CEUA-FIOCRUZ, Act 00085-02). […] For each molecule, the necessary dose to induce a convulsive clinical Figure in 50% of the animals (DE50) was determined by linear regressive curves interpoled (GraphPad Prim, version 3.03).

Where [2] appears, read: intraperitoneal, 15 minutes after injection, 10 mice per dose.

`CCN(CC)CC(=O)Nc1cccc(C)c1C` [JM23-1, 2-dyethylamine-2′,3′-acetoxylidide]: the “inhibition of anaphylactic histamine release, result in words” value in data set [1] was “inactive”. For the same molecule, in the data set on eosinophils of rats, the “inhibition of citosolic calcium increase compared with lidocaine” value is given as “equipotent to lidocaine”. Also, in the data set with Swiss 44 mice (mouse, in vivo, ip), the “DE50, dose to induce convulsion in 50% of the animals” value (“DE50, dose … in 50% of the animals” below) stood at 154 mg/kg.
One may read the IC50 as the concentration at which inhibition is half-maximal. For the molecule `CCN(CC)CC(=O)Nc1ccc(C)cc1C` [JM24-1, 2-dyethylamine-2′,4′-acetoxylidide], in data set [1], the “inhibition of anaphylactic histamine release, result in words” value is “concentrations comparable to that of lidocaine” and the IC50 worked out at 6.46 µM. Besides, in the data set on eosinophils of rats, the “inhibition of citosolic calcium increase compared with lidocaine” value is “so effective as lidocaine and JM23-1 in higher concentrations”. For the same molecule, the “convulsivant activity compared with lidocaine” value in the data set on Swiss 44 mice (40-500 mg/Kg intraperitoneal) is “noticeably inferior”. For the same molecule, in the data set with Swiss 44 mice (setting [2]), the “DE50, dose … in 50% of the animals” value is on record as 230 mg/kg.
On to `CCN(CC)CC(=O)Nc1c(C)cccc1C` [Lidocaine, 1-(2-(dyethylamine)N-dymethylfenyl)-acetamide, reference compound], for which the concentration for half-maximal inhibition (IC50) in data set [1] turned out to be 4.5 µM. Also, the “blocking of the increase of citosolic calcium” value in the data set with eosinophils of rats (highest concentration (1 mM), Average±SEM, n=8) was found to be 47±2%. Also, the “percentage of injected animals led to convulsion” value in the data set on Swiss 44 mice (80 mg/Kg intraperitoneal) worked out at 100%. Moreover, in the data set on Swiss 44 mice (setting [2]), the “DE50, dose … in 50% of the animals” value came out at 62 mg/kg.
